# Tested on: patients with advanced cancer
# Test: Phase I clinical trial, daily versus pulsatile dosing of (−)-gossypol: adverse events graded by NCI-CTCAE v3 (Daily N = 38, BID × 3 d N = 21, Weekly N = 12)
# Assay type: in vivo, human
# Method: A phase I clinical trial was carried out to compare the maximum tolerated dose and safety of daily (i.e., continuous) versus pulsatile (i.e., intermittent) dosing of (−)-gossypol in patients with advanced cancer. A secondary objective of this study was to identify any anti-tumor activity of (−)-gossypol. Patients were treated with increasing doses of (−)-gossypol according to the following dosing schedules: “Daily” dosing: 5 to 60 mg/day of (−)-gossypol on 21 days per 28 day cycle; “BID×3d” dosing: 30 to 80 mg BID of (−)-gossypol on 3 consecutive days (e.g., Monday-Tuesday-Wednesday) repeated every other week per 28 day cycle; and “Weekly” dosing: 80 to 200 mg of (−)-gossypol once weekly per 28 day cycle. Adverse events (AEs) were graded by NCI-CTCAE v3.
compound,measurement,setting,value
Cc1cc2c(C(C)C)c(O)c(O)c(C=O)c2c(O)c1-c1c(C)cc2c(C(C)C)c(O)c(O)c(C=O)c2c1O [(−)-gossypol],ALT increase,"BID × 3 d, Grade ½",2 (10) N (%)
same,AST increase,"BID × 3 d, Grade ½",2 (10) N (%)
same,Abdominal discomfort,"BID × 3 d, Grade ½",1 (5) N (%)
same,Abdominal distention,"BID × 3 d, Grade ½",3 (14) N (%)
same,Abdominal pain,"BID × 3 d, Grade ½",5 (24) N (%)
same,Albumin decreased,"BID × 3 d, Grade ½",0 N (%)
same,Alkaline phosphatase increase,"BID × 3 d, Grade ½",2 (10) N (%)
same,Anorexia or decreased appetite,"BID × 3 d, Grade ½",10 (48) N (%)
same,Any AE,"BID × 3 d, Grade ½",16 (76) N (%)
same,Back pain,"BID × 3 d, Grade ½",1 (5) N (%)
same,Constipation,"BID × 3 d, Grade ½",6 (29) N (%)
same,Cough,"BID × 3 d, Grade ½",0 N (%)
same,Creatinine increased,"BID × 3 d, Grade ½",2 (10) N (%)
same,Creatinine phosphokinase increase,"BID × 3 d, Grade ½",0 N (%)
same,Dehydration,"BID × 3 d, Grade ½",3 (14) N (%)
same,Diarrhea,"BID × 3 d, Grade ½",8 (38) N (%)
same,Dizziness,"BID × 3 d, Grade ½",2 (10) N (%)
same,Dry mouth,"BID × 3 d, Grade ½",2 (10) N (%)
same,Dysgeusia,"BID × 3 d, Grade ½",2 (10) N (%)
same,Dyspnea,"BID × 3 d, Grade ½",5 (24) N (%)
same,Fatigue/Asthenia,"BID × 3 d, Grade ½",15 (72) N (%)
same,Flatulence,"BID × 3 d, Grade ½",2 (10) N (%)
same,Headache,"BID × 3 d, Grade ½",1 (5) N (%)
same,Hepatic encephalopathy,"BID × 3 d, Grade ½",0 N (%)
same,Hyperbilirubinaemia,"BID × 3 d, Grade ½",0 N (%)
same,Hyperkalemia,"BID × 3 d, Grade ½",1 (5) N (%)
same,Hypocalcemia,"BID × 3 d, Grade ½",0 N (%)
same,Hypokalemia,"BID × 3 d, Grade ½",1 (5) N (%)
same,Hyponatremia,"BID × 3 d, Grade ½",1 (5) N (%)
same,Infection,"BID × 3 d, Grade ½",0 N (%)
same,Insomnia,"BID × 3 d, Grade ½",1 (5) N (%)
same,Mental status changes,"BID × 3 d, Grade ½",0 N (%)
same,Nausea,"BID × 3 d, Grade ½",14 (67) N (%)
same,Pain,"BID × 3 d, Grade ½",3 (14) N (%)
same,Pancreatitis,"BID × 3 d, Grade ½",0 N (%)
same,Peripheral edema,"BID × 3 d, Grade ½",0 N (%)
same,Pleural Effusion,"BID × 3 d, Grade ½",0 N (%)
same,Pneumatosis intestinalis,"BID × 3 d, Grade ½",0 N (%)
same,Pneumonia,"BID × 3 d, Grade ½",0 N (%)
same,Proteinurea,"BID × 3 d, Grade ½",2 (10) N (%)
same,Pyrexia,"BID × 3 d, Grade ½",3 (14) N (%)
same,Renal Failure,"BID × 3 d, Grade ½",0 N (%)
same,Sinusitis,"BID × 3 d, Grade ½",0 N (%)
same,Small intestinal obstruction (ileus),"BID × 3 d, Grade ½",0 N (%)
same,Troponin I or T increased,"BID × 3 d, Grade ½",1 (5) N (%)
same,Urinary Tract Infection,"BID × 3 d, Grade ½",2 (10) N (%)
same,Vomiting,"BID × 3 d, Grade ½",9 (43) N (%)
same,Weight decreased,"BID × 3 d, Grade ½",4 (19) N (%)
same,White blood cells increased,"BID × 3 d, Grade ½",2 (10) N (%)
same,ALT increase,"BID × 3 d, Grade ¾",0 N (%)
same,AST increase,"BID × 3 d, Grade ¾",0 N (%)
same,Abdominal discomfort,"BID × 3 d, Grade ¾",0 N (%)
same,Abdominal distention,"BID × 3 d, Grade ¾",0 N (%)
same,Abdominal pain,"BID × 3 d, Grade ¾",2 (10) N (%)
same,Albumin decreased,"BID × 3 d, Grade ¾",0 N (%)
same,Alkaline phosphatase increase,"BID × 3 d, Grade ¾",0 N (%)
same,Anorexia or decreased appetite,"BID × 3 d, Grade ¾",1 (5) N (%)
same,Any AE,"BID × 3 d, Grade ¾",11 (52) N (%)
same,Back pain,"BID × 3 d, Grade ¾",0 N (%)
same,Constipation,"BID × 3 d, Grade ¾",0 N (%)
same,Cough,"BID × 3 d, Grade ¾",0 N (%)
same,Creatinine increased,"BID × 3 d, Grade ¾",0 N (%)
same,Creatinine phosphokinase increase,"BID × 3 d, Grade ¾",1 (5) N (%)
same,Dehydration,"BID × 3 d, Grade ¾",2 (10) N (%)
same,Diarrhea,"BID × 3 d, Grade ¾",1 (5) N (%)
same,Dizziness,"BID × 3 d, Grade ¾",0 N (%)
same,Dry mouth,"BID × 3 d, Grade ¾",0 N (%)
same,Dysgeusia,"BID × 3 d, Grade ¾",0 N (%)
same,Dyspnea,"BID × 3 d, Grade ¾",0 N (%)
same,Fatigue/Asthenia,"BID × 3 d, Grade ¾",1 (5) N (%)
same,Flatulence,"BID × 3 d, Grade ¾",0 N (%)
same,Headache,"BID × 3 d, Grade ¾",0 N (%)
same,Hepatic encephalopathy,"BID × 3 d, Grade ¾",1 (5) N (%)
same,Hyperbilirubinaemia,"BID × 3 d, Grade ¾",1 (5) N (%)
same,Hyperkalemia,"BID × 3 d, Grade ¾",1 (5) N (%)
same,Hypocalcemia,"BID × 3 d, Grade ¾",0 N (%)
same,Hypokalemia,"BID × 3 d, Grade ¾",3 (14) N (%)
same,Hyponatremia,"BID × 3 d, Grade ¾",1 (5) N (%)
same,Infection,"BID × 3 d, Grade ¾",0 N (%)
same,Insomnia,"BID × 3 d, Grade ¾",0 N (%)
same,Mental status changes,"BID × 3 d, Grade ¾",0 N (%)
same,Nausea,"BID × 3 d, Grade ¾",0 N (%)
same,Pain,"BID × 3 d, Grade ¾",1 (5) N (%)
same,Pancreatitis,"BID × 3 d, Grade ¾",1 (5) N (%)
same,Peripheral edema,"BID × 3 d, Grade ¾",0 N (%)
same,Pleural Effusion,"BID × 3 d, Grade ¾",0 N (%)
same,Pneumatosis intestinalis,"BID × 3 d, Grade ¾",1 (5) N (%)
same,Pneumonia,"BID × 3 d, Grade ¾",1 (5) N (%)
same,Proteinurea,"BID × 3 d, Grade ¾",0 N (%)
same,Pyrexia,"BID × 3 d, Grade ¾",0 N (%)
same,Renal Failure,"BID × 3 d, Grade ¾",1 (5) N (%)
same,Sinusitis,"BID × 3 d, Grade ¾",0 N (%)
same,Small intestinal obstruction (ileus),"BID × 3 d, Grade ¾",1 (5) N (%)
same,Troponin I or T increased,"BID × 3 d, Grade ¾",0 N (%)
same,Urinary Tract Infection,"BID × 3 d, Grade ¾",0 N (%)
same,Vomiting,"BID × 3 d, Grade ¾",2 (10) N (%)
same,Weight decreased,"BID × 3 d, Grade ¾",0 N (%)
same,White blood cells increased,"BID × 3 d, Grade ¾",0 N (%)
same,ALT increase,"Daily, Grade ½",7 (18) N (%)
same,AST increase,"Daily, Grade ½",6 (16) N (%)
same,Abdominal discomfort,"Daily, Grade ½",0 N (%)
same,Abdominal distention,"Daily, Grade ½",4 (11) N (%)
same,Abdominal pain,"Daily, Grade ½",8 (21) N (%)
same,Albumin decreased,"Daily, Grade ½",0 N (%)
same,Alkaline phosphatase increase,"Daily, Grade ½",6 (16) N (%)
same,Anorexia or decreased appetite,"Daily, Grade ½",19 (50) N (%)
same,Any AE,"Daily, Grade ½",38 (100) N (%)
same,Back pain,"Daily, Grade ½",6 (16) N (%)
same,Constipation,"Daily, Grade ½",9 (24) N (%)
same,Cough,"Daily, Grade ½",8 (21) N (%)
same,Creatinine increased,"Daily, Grade ½",6 (16) N (%)
same,Creatinine phosphokinase increase,"Daily, Grade ½",0 N (%)
same,Dehydration,"Daily, Grade ½",9 (24) N (%)
same,Diarrhea,"Daily, Grade ½",13 (34) N (%)
same,Dizziness,"Daily, Grade ½",7 (18) N (%)
same,Dry mouth,"Daily, Grade ½",3 (8) N (%)
same,Dysgeusia,"Daily, Grade ½",2 (5) N (%)
same,Dyspnea,"Daily, Grade ½",6 (16) N (%)
same,Fatigue/Asthenia,"Daily, Grade ½",31 (81) N (%)
same,Flatulence,"Daily, Grade ½",1 (3) N (%)
same,Headache,"Daily, Grade ½",5 (13) N (%)
same,Hepatic encephalopathy,"Daily, Grade ½",0 N (%)
same,Hyperbilirubinaemia,"Daily, Grade ½",2 (5) N (%)
same,Hyperkalemia,"Daily, Grade ½",2 (5) N (%)
same,Hypocalcemia,"Daily, Grade ½",2 (5) N (%)
same,Hypokalemia,"Daily, Grade ½",1 (3) N (%)
same,Hyponatremia,"Daily, Grade ½",1 (3) N (%)
same,Infection,"Daily, Grade ½",1 (3) N (%)
same,Insomnia,"Daily, Grade ½",7 (18) N (%)
same,Mental status changes,"Daily, Grade ½",0 N (%)
same,Nausea,"Daily, Grade ½",22 (58) N (%)
same,Pain,"Daily, Grade ½",6 (16) N (%)
same,Pancreatitis,"Daily, Grade ½",0 N (%)
same,Peripheral edema,"Daily, Grade ½",5 (13) N (%)
same,Pleural Effusion,"Daily, Grade ½",1 (3) N (%)
same,Pneumatosis intestinalis,"Daily, Grade ½",0 N (%)
same,Pneumonia,"Daily, Grade ½",0 N (%)
same,Proteinurea,"Daily, Grade ½",0 N (%)
same,Pyrexia,"Daily, Grade ½",4 (11) N (%)
same,Renal Failure,"Daily, Grade ½",0 N (%)
same,Sinusitis,"Daily, Grade ½",4 (11) N (%)
same,Small intestinal obstruction (ileus),"Daily, Grade ½",0 N (%)
same,Troponin I or T increased,"Daily, Grade ½",2 (5) N (%)
same,Urinary Tract Infection,"Daily, Grade ½",5 (13) N (%)
same,Vomiting,"Daily, Grade ½",13 (34) N (%)
same,Weight decreased,"Daily, Grade ½",11 (29) N (%)
same,White blood cells increased,"Daily, Grade ½",0 N (%)

# Source: US20100189683A1, “Pulsatile Dosing of Gossypol for Treatment of Disease” (Ascenta Therapeutics, Inc., priority 2008, published 2010)
